From ChEMBL document CHEMBL1201862, “PubChem BioAssay data set” (2004)
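Exposure lasted 48 hours, with cells grown in 96-well plates and compounds tested at five concentrations. Abbreviation: GI50, concentration required for 50% inhibition of growth.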 Calls of active or inactive are those of the source. No stated cut-off is given here; in the data, active = GI50 up to about 1.1 µM and inactive = higher.

Experiments:
Assay in all cases: NCI anticancer screen, dose series, 48 h
CAKI-1 = tested on: CAKI-1
NCI-H226 = tested on: NCI-H226
SF-295 = tested on: SF-295
NCI/ADR-RES = tested on: NCI/ADR-RES
NCI-H23 = tested on: NCI-H23
SW-620 = tested on: SW-620
MDA-MB-435 = tested on: MDA-MB-435
KM12 = tested on: KM12
RPMI-8226 = tested on: RPMI-8226
SF-539 = tested on: SF-539
HL-60 = tested on: HL-60
SK-OV-3 = tested on: SK-OV-3
HCT-116 = tested on: HCT-116
SN12C = tested on: SN12C
TK-10 = tested on: TK-10
SNB-75 = tested on: SNB-75
NCI-H460 = tested on: NCI-H460
IGROV-1 = tested on: IGROV-1
SNB-19 = tested on: SNB-19
COLO 205 = tested on: COLO 205

Measured: GI50

COC(=O)C(/C(=N/N)C(=O)Nc1cc(Cl)c(Cl)cc1Cl)c1nc2ccc(Cl)cc2nc1O (centres undefined)
inactive: CAKI-1 > 100 µM | NCI-H226 > 100 µM | SF-295 > 100 µM | NCI/ADR-RES 84.5 µM | NCI-H23 > 100 µM | SW-620 > 100 µM | MDA-MB-435 > 100 µM | KM12 > 100 µM | RPMI-8226 > 100 µM | SF-539 > 100 µM | HL-60 > 100 µM | SK-OV-3 > 100 µM | HCT-116 > 100 µM | SN12C > 100 µM | TK-10 > 100 µM | SNB-75 > 100 µM | NCI-H460 > 100 µM | IGROV-1 45 µM

Cc1nc2ccccc2c(=O)n1NC(=O)c1ccccc1[N+](=O)[O-]
inactive: NCI-H226 > 100 µM | SF-295 > 100 µM | NCI/ADR-RES > 100 µM | NCI-H23 > 100 µM | SNB-19 > 100 µM | SW-620 > 100 µM | MDA-MB-435 > 100 µM | KM12 > 100 µM | RPMI-8226 > 100 µM | SF-539 > 100 µM | HL-60 > 100 µM | SK-OV-3 > 100 µM | HCT-116 > 100 µM | SN12C > 100 µM | TK-10 > 100 µM | SNB-75 81.5 µM | NCI-H460 > 100 µM | IGROV-1 > 100 µM

Cc1nc2cccc([N+](=O)[O-])c2n1CCCN(C)C
inactive: CAKI-1 > 100 µM | NCI-H226 > 100 µM | COLO 205 > 100 µM | SF-295 > 100 µM | NCI/ADR-RES > 100 µM | NCI-H23 > 100 µM | SNB-19 > 100 µM | SW-620 > 100 µM | MDA-MB-435 > 100 µM | KM12 > 100 µM | RPMI-8226 > 100 µM | HL-60 > 100 µM | SK-OV-3 > 100 µM | HCT-116 > 100 µM | SN12C > 100 µM | TK-10 > 100 µM | SNB-75 > 100 µM | NCI-H460 > 100 µM | IGROV-1 > 100 µM

O=S(=O)(N/C(=N\O)Nc1ccc(Cl)cc1)c1cc(C(F)(F)F)cc(C(F)(F)F)c1
inactive: CAKI-1 16.9 µM | NCI-H226 19.1 µM | COLO 205 18.6 µM | SF-295 18.3 µM | NCI/ADR-RES 24.9 µM | NCI-H23 19.9 µM | SNB-19 17.1 µM | SW-620 34.3 µM | MDA-MB-435 20.3 µM | KM12 19.7 µM | SF-539 22.3 µM | HL-60 24.3 µM | SK-OV-3 18.6 µM | HCT-116 17.5 µM | SN12C 17.5 µM | TK-10 19.2 µM | SNB-75 16 µM | NCI-H460 26.4 µM | IGROV-1 16.9 µM

CCCCCCC1OC23OC1CCC2C(O)CCC3O (centres undefined)
inactive: CAKI-1 > 100 µM | NCI-H226 > 100 µM | COLO 205 > 100 µM | SF-295 > 100 µM | NCI/ADR-RES > 100 µM | NCI-H23 > 100 µM | SNB-19 > 100 µM | SW-620 > 100 µM | MDA-MB-435 > 100 µM | KM12 > 100 µM | RPMI-8226 > 100 µM | SF-539 > 100 µM | HL-60 > 100 µM | HCT-116 > 100 µM | SN12C > 100 µM | TK-10 > 100 µM | SNB-75 > 100 µM | NCI-H460 > 100 µM | IGROV-1 > 100 µM

O=C(Cc1ccccc1)N/N=C(/CCN1CCCC1)CC(c1ccccc1)c1c(O)c2ccccc2oc1=O (centres undefined)
inactive: CAKI-1 > 100 µM | NCI-H226 > 100 µM | COLO 205 23.9 µM | NCI/ADR-RES 55.8 µM | NCI-H23 55.7 µM | SNB-19 > 100 µM | SW-620 > 100 µM | MDA-MB-435 > 100 µM | KM12 > 100 µM | RPMI-8226 39.7 µM | SF-539 > 100 µM | HL-60 39.8 µM | SK-OV-3 > 100 µM | HCT-116 80.2 µM | TK-10 > 100 µM | SNB-75 > 100 µM | IGROV-1 > 100 µM

CC1(C)CC(=O)C2=C(C1)NC(SCC(=O)O)=C(C#N)C2c1ccc(Br)cc1 (centres undefined)
inactive: CAKI-1 > 100 µM | NCI-H226 > 100 µM | COLO 205 > 100 µM | SF-295 > 100 µM | NCI/ADR-RES > 100 µM | NCI-H23 > 100 µM | SNB-19 > 100 µM | SW-620 > 100 µM | MDA-MB-435 > 100 µM | KM12 > 100 µM | HL-60 > 100 µM | SK-OV-3 > 100 µM | HCT-116 > 100 µM | TK-10 > 100 µM | SNB-75 > 100 µM | NCI-H460 > 100 µM | IGROV-1 > 100 µM

N[C@H](C(=O)O)[C@@H]1CC(Br)=NO1
inactive: CAKI-1 18.4 µM | NCI-H226 > 96.6 µM | COLO 205 33.3 µM | SF-295 6.28 µM | NCI/ADR-RES 39.7 µM | NCI-H23 > 35.7 µM | SNB-19 36.4 µM | SW-620 5.87 µM | MDA-MB-435 19.7 µM | KM12 10.6 µM | SF-539 5.21 µM | HL-60 > 48.4 µM | SK-OV-3 8.05 µM | HCT-116 5.6 µM | SN12C 38.3 µM | TK-10 16 µM | SNB-75 16.8 µM | NCI-H460 4.31 µM | IGROV-1 19 µM

CC(C)(C)C1CC[C@H](O)[C@H]([C@@H](O)CC2CC(=O)N(c3ccccc3)C(=O)C2)C1 (some centres undefined)
inactive: CAKI-1 > 100 µM | NCI-H226 > 100 µM | SF-295 > 100 µM | NCI/ADR-RES 67.9 µM | NCI-H23 > 100 µM | SNB-19 > 100 µM | SW-620 > 100 µM | MDA-MB-435 55.2 µM | KM12 47.5 µM | RPMI-8226 46.2 µM | SF-539 > 100 µM | HL-60 28.1 µM | HCT-116 60.5 µM | SN12C > 100 µM | TK-10 > 100 µM | SNB-75 > 100 µM | NCI-H460 44.2 µM | IGROV-1 > 100 µM

CC[C@]1(Cc2ccc(OC)c(OC)c2)C=[N+]([O-])O[C@H](OC2CCCC2(c2ccccc2)c2ccccc2)[C@@H]1OC(C)=O (some centres undefined)
inactive: CAKI-1 2.95 µM | COLO 205 3.35 µM | SF-295 4.92 µM | NCI/ADR-RES 2.59 µM | NCI-H23 5.25 µM | SNB-19 5.89 µM | SW-620 3.44 µM | MDA-MB-435 2.41 µM | KM12 2.84 µM | HL-60 3.36 µM | SK-OV-3 14.5 µM | HCT-116 2.08 µM | SN12C 4.12 µM | TK-10 3.02 µM | SNB-75 2.82 µM | NCI-H460 5.4 µM | IGROV-1 2.08 µM

[N-]=[N+]=Nc1ccc(NCCCCCC(=O)ON2C(=O)CCC2=O)c([N+](=O)[O-])c1
inactive: CAKI-1 34.4 µM | NCI-H226 > 100 µM | COLO 205 > 100 µM | SF-295 > 100 µM | NCI/ADR-RES 31.1 µM | NCI-H23 66.7 µM | SNB-19 > 100 µM | SW-620 60.1 µM | MDA-MB-435 48.1 µM | KM12 46.2 µM | SF-539 30.5 µM | HL-60 32.5 µM | SK-OV-3 > 100 µM | HCT-116 39.6 µM | SN12C 27.4 µM | TK-10 42.1 µM | SNB-75 72.9 µM | NCI-H460 61.7 µM | IGROV-1 > 100 µM

COc1ccc2c(c1)C(=O)CC(N)C2 (centres undefined)
inactive: CAKI-1 > 100 µM | NCI-H226 67.8 µM | COLO 205 > 100 µM | SF-295 > 100 µM | NCI/ADR-RES > 100 µM | NCI-H23 > 100 µM | SNB-19 > 100 µM | SW-620 > 100 µM | MDA-MB-435 > 100 µM | KM12 > 100 µM | RPMI-8226 > 100 µM | HL-60 62.7 µM | SK-OV-3 > 100 µM | HCT-116 > 100 µM | SN12C > 100 µM | TK-10 > 100 µM | SNB-75 25.1 µM | NCI-H460 > 100 µM | IGROV-1 > 100 µM

Cc1ccc(C(=O)Nc2ccc(CP(=O)(O)O)cc2CP(=O)(O)O)cc1NC(=O)c1cccc(N)c1
inactive: CAKI-1 > 100 µM | NCI-H226 > 100 µM | COLO 205 > 100 µM | SF-295 > 100 µM | NCI/ADR-RES > 100 µM | NCI-H23 > 100 µM | SW-620 > 100 µM | MDA-MB-435 > 100 µM | KM12 > 100 µM | RPMI-8226 > 100 µM | SF-539 > 100 µM | HL-60 > 100 µM | SK-OV-3 > 100 µM | HCT-116 > 100 µM | SN12C > 100 µM | TK-10 > 100 µM | SNB-75 > 100 µM | NCI-H460 > 100 µM | IGROV-1 > 100 µM

CCc1[nH]nc(C(N)=O)c1/N=N/N(C)C
inactive: CAKI-1 24.8 µM | NCI-H226 84.1 µM | COLO 205 98.9 µM | SF-295 39.7 µM | NCI/ADR-RES 94.8 µM | NCI-H23 54.1 µM | SNB-19 > 100 µM | SW-620 > 100 µM | MDA-MB-435 64.6 µM | KM12 56.5 µM | RPMI-8226 81.5 µM | SF-539 78.7 µM | HL-60 9.62 µM | SK-OV-3 91.6 µM | HCT-116 72.1 µM | SN12C 44 µM | TK-10 > 100 µM | SNB-75 65.9 µM | IGROV-1 34.8 µM

CC(C)SC(NC(=O)C1C(C)(C)CCC1(C)C)C(=O)O (centres undefined)
inactive: NCI-H226 > 100 µM | COLO 205 > 100 µM | NCI/ADR-RES > 100 µM | NCI-H23 > 100 µM | SNB-19 > 100 µM | SW-620 > 100 µM | MDA-MB-435 > 100 µM | RPMI-8226 > 100 µM | SF-539 > 100 µM | HL-60 > 100 µM | SK-OV-3 > 100 µM | HCT-116 > 100 µM | SN12C > 100 µM | TK-10 > 100 µM | SNB-75 > 100 µM | NCI-H460 > 100 µM | IGROV-1 > 100 µM
